# Data published in US20230212584A1, “MEDICAMENT USED FOR TREATING CHOLANGIOCARCINOMA WITH KRAS MUTATIONS” (GENOMICARE BIOTECHNOLOGY (SHANGHAI) CO., LTD., priority 2022, published 2023).
# What was measured:
# [1] = test system: KRAS-mutated cholangiocarcinoma cell line HUCCT1; assay: Cell viability assay, CellTiter-Glo (CTG) method, HUCCT1; format: cell-based; details: concentration higher than 2.5 μM; 1 nM Estradiol; 168 hours; lower inhibition rate than OZ; FIG. 4
# Protocol: (§1) Fulvestrant was assayed for its anti-cholangiocarcinoma activity using the CTG method. The cell lines used were KRAS-mutated cholangiocarcinoma cell lines HUCCT1 and OZ, as well as KRAS wild-type cholangiocarcinoma cell line HCCC-9810. The efficacy of treatment by a medicament for cholangiocarcinoma was determined by comparing the difference in growth between KRAS-mutant-type group and wild-type group after treatment by a medicament. The specific steps were as follows:
# (§2) 1) Different experimental cell lines were sub-cultured into 96-well plates. 100 μL of PBS was added around the 96-well plates as a blank, where the cholangiocarcinoma cell lines used were HUCCT, OZ and HCCC-9810. The cells in the 96-well plates were cultured overnight at 37° C., 5% CO2 and 95% humidity.
# (§3) 2) The cell culture medium in the 96-well plate was discarded and 100 μL of phenol red-free RPMI1640 culture medium containing 5% Charcoal Stripped FBS was added.
# (§4) 3) The cells in the 96-well plate with the changed medium were cultured at 37° C., 5% CO2, 95% humidity for another 48 hours. […]
# (§5) 9) On the 11th day of the culture, CellTiter-Glo® reagent and medicament-treated cell culture plates were placed at room temperature for 30 minutes to equilibrate. […] Chemiluminescence values were read with EnVision®. […]
# [2] = test system: KRAS-mutated cholangiocarcinoma cell line OZ; assay: Cell viability assay, CellTiter-Glo (CTG) method, OZ; format: cell-based; details: 1 μM Fulvestrant; 1 nM Estradiol; 168 hours; inhibition rate increased with concentration; FIG. 4
# Protocol: as §1, §2, §3, §4, §5
smiles,measurement,setting,value
C[C@]12CC[C@@H]3c4ccc(O)cc4C[C@@H](CCCCCCCCC[S+]([O-])CCCC(F)(F)C(F)(F)F)[C@H]3[C@@H]1CC[C@@H]2O (some centres unmarked) [Fulvestrant],growth inhibition of HuCCT1,[1],significantly inhibited
same,growth inhibition of OZ,[2],significant growth inhibition
